This note sets out measurements from patent US20060019855A1, “Composition for a bactericidal, disinfecting, and cleansing foam agent” (priority 2004, published 2006).

Structures are written as SMILES.

What all share (experiment): Antibacterial effect test
The test system of one assay is Escherichia coli FMK1254. Type of assay: cell-based. The note with it: for antibacterial effects (in words): E. coli. The procedure: (§1) Antibacterial Effect Test
(§2) Composition of Example 1: The composition of Example 1 was filled in a pump foamer (manufactured by DAIWA CAN COMPANY).
(§3) Ethanol gel: A hand cleansing gel made by […] CO. LTD. (ethanol content: 70%, formulated with aloe extract).
(§4) MacConkey Agar (Difco) was employed for E. coli FMK1254 and Pathogenic E. coli 0157:H7 SAKAI.
(§5) 1) The respective strains were incubated overnight in TSB at 37° C. The bacterial suspensions were diluted with physiologic saline to have a concentration of approximately 10^4 CFU/ml each.
(§6) 2) Next, 4.5 g each of the test samples were added to dishes (Composition of Example 1 and Control composition were added in a foamed state.). Thereafter, 0.5 ml each of the bacterial suspensions obtained in the process 1) was inoculated thereinto and mixed well. For every combination (12 combinations in total) of the four test samples and the three bacterial suspensions, two sample dishes were prepared in this manner.
(§7) 3) Regarding the first ones of these sample dishes, the number of bacteria was counted immediately after inoculation of the bacterial suspensions, and also after one and two hours of incubation at 37° C. For incubation, the dishes were put in an incubator, with the lids slightly open. To count the number of bacteria of each strain, two agar media were respectively inoculated with 0.1 ml of the bacterial suspension and incubated for 24 hours at 37° C. Later, the number of colonies in both agar media was counted and averaged.
(§8) 4) The second ones of the sample dishes prepared in the process 2) were incubated for two hours at 37° C. after inoculation of the bacterial suspensions. Thereafter, 0.5 ml each of the corresponding bacterial suspensions was again inoculated thereinto and mixed well. The number of bacteria was counted immediately after reinoculation of the bacterial suspensions, and also after one and two hours of incubation at 37° C., in the same manner as in the process 3).
(§9) In Tables 2-4, “B” indicates the theoretical number of bacteria in the mixtures of the bacterial suspensions and the test samples. The symbol “*” indicates reinoculation.

For assay [1], the system named is Pathogenic E. coli O157:H7 Sakai. Type of assay: cell-based, Escherichia coli. Conditions: for number of bacteria: Pathogenic E. coli O157:H7 Sakai; for antibacterial effects (in words): pathogenic E. coli. The procedure: as §1, §2
Ethanol gel: A hand cleansing gel made by FUMAKILLA CO. LTD. (ethanol content: 70%, formulated with aloe extract).
Pathogenic Escherichia coli 0157:H7 Sakai
as §4, §5, §6, §7, §8, §9

In assay [2] the test system is Staphylococcus aureus ATCC25923. The class given is cell-based. The note with it: for antibacterial effects (in words): S. aureus. As to the method:
as §1, §2, §3
Staphylococcus aureus ATCC25923
Nutrient Agar (Difco) was employed for S. aureus ATCC25923.
as §5, §6, §7, §8, §9

[3] abbreviates: after two hours of reinoculation.

Turning to `CCO` [70% Ethanol, Ethanol], the number of bacteria was 4095 CFU/ml in the assay on Escherichia coli FMK1254 (E. coli FMK1254, 1 hour at 37° C. after reinoculation); “≦9 CFU/ml” in the assay with Escherichia coli FMK1254 (E. coli FMK1254, 1 hour of incubation at 37° C. after inoculation); 2195 CFU/ml in the assay with Escherichia coli FMK1254 (E. coli FMK1254, 2 hours at 37° C. after reinoculation); “≦9 CFU/ml” with Escherichia coli FMK1254 (E. coli FMK1254, 2 hours of incubation at 37° C. after inoculation); “≦9 CFU/ml” with Escherichia coli FMK1254 (E. coli FMK1254, immediately after inoculation (0)); 2280 CFU/ml in the assay with Escherichia coli FMK1254 (E. coli FMK1254, immediately after reinoculation (0*)). Further, the number of bacteria entry in assay [1] (1 hour at 37° C. after inoculation) was “≦9 CFU/ml”; in assay [1] (1 hour at 37° C. after reinoculation), “≧30000 CFU/ml”; in assay [1] (2 hours at 37° C. after inoculation), “≦9 CFU/ml”; in assay [1] (2 hours at 37° C. after reinoculation), “≧30000 CFU/ml”; in assay [1] (immediately after inoculation (0)), “≦9 CFU/ml”; in assay [1] (immediately after reinoculation (0*)), “≧30000 CFU/ml”. Besides, the number of bacteria entry was “≦9 CFU/ml” in assay [2] (S. aureus ATCC25923, 1 hour at 37° C. after inoculation); 75 CFU/ml in assay [2] (S. aureus ATCC25923, 1 hour at 37° C. after reinoculation); “≦9 CFU/ml” in assay [2] (S. aureus ATCC25923, 2 hours at 37° C. after inoculation); 45 CFU/ml in assay [2] (S. aureus ATCC25923, 2 hours at 37° C. after reinoculation); “≦9 CFU/ml” in assay [2] (S. aureus ATCC25923, immediately after inoculation (0)); 180 CFU/ml in assay [2] (S. aureus ATCC25923, immediately after reinoculation (0*)). The “antibacterial effects (in words)” value in the assay on Escherichia coli FMK1254 (after two hours of inoculation) is “excellent”; in the assay on Escherichia coli FMK1254 (setting [3]), “totally lost”; in assay [1] (after two hours of inoculation), “excellent”; in assay [1] (setting [3]), “totally lost”; in assay [2] (after two hours of inoculation), “excellent”; in assay [2] (setting [3]) it was “not sufficient”.
